For the experiment, the target named is 5-hydroxytryptamine receptor 4 (Rattus norvegicus, UniProt Q62758).
5-hydroxytryptamine receptor 4, sequence (Q62758 whole entry): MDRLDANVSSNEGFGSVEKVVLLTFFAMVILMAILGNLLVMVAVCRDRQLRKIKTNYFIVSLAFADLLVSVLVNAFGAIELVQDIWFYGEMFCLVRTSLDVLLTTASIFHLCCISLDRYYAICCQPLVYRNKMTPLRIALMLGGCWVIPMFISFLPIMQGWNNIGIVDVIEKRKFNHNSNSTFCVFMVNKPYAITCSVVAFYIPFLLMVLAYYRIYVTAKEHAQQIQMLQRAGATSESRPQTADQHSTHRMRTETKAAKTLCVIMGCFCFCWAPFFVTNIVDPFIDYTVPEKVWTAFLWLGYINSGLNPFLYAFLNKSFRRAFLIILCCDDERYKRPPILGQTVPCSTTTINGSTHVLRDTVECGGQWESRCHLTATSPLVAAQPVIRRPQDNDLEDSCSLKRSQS
For `Cn1cc(CCN)c2cc(O)ccc21` [5-HT,omega-N-Me], the Ki was determined as 263 nM. As for `COc1cc(N)c(Cl)cc1C(=O)NC1CCN(CCCOc2ccc(F)cc2)CC1OC` (stereo unspecified) [4-amino-5-chloro-N-(1-(3-(4-fluorophenoxy)propyl)-3-methoxypiperidin-4-yl)-2-methoxybenzamide], the figure is 25 nM. As for `COc1ccc2[nH]cc(CCN)c2c1` [tryptamine, 5-Methoxy], the inhibition constant Ki was 112 nM. In turn, `CN1C2CCC1CC(OC(=O)c1c[nH]c3ccccc13)C2` (stereo unspecified) showed an inhibition constant Ki of 159 nM. The value for `COc1cc(N)c(Cl)cc1C(=O)NC1CCN2CCCC1C2` (stereo unspecified) [NSC_3035240] was 27 nM; that for `NCCc1c[nH]c2ccc(C(N)=O)cc12` [[3H]-5-carboxamidotryptamine] was 1000 nM.

The record behind these values is BindingDB's records for doi:10.1016/0014-2999(96)00122-7 (Synaptic Pharmaceutical, 1996).
